Assay: in vitro
Settings: human, hela cells, % viability

| SMILES | viability at 28.5 h, 10 µM |
| --- | --- |
| CC(C)NC(=O)c1ccc(Cl)cc1 [CBK015665] | 101% |
| CCC1CCC2(CC1)NC(=O)N(Cc1cc(-c3ccccc3)on1)C2=O (stereo not drawn) [CBK294977] | 90.1% |
| COc1ccccc1-c1ncc(OCc2ccccn2)nc1N [CBK145070] | 109% |
| Cn1ccnc1C1(O)C2CCCC1CN(Cc1ccccc1F)C2 (stereo not drawn) [CBK285206] | 97.2% |
| CC(C)N1CC[C@H]2CN(C(=O)CCC(=O)O)CC[C@H]2CC1=O [CBK288789] | 87.8% |
| CC(C)(CC(=O)O)CC(=O)Nc1ccc2c(c1)ncn2CCc1ccccc1 [CBK299768] | 91.7% |
| NC(=O)C[N+]1(CC#CC(O)(c2ccccc2)c2ccccc2)CCCC1 [CBK262703I] | 95.3% |
| CCn1cc(C(=O)O)c(=O)c2cnc(N3CCN(C(=S)Nc4cc5oc6ccccc6c5cc4OC)CC3)nc21 [CBK267929] | 101% |
| CC(C)(CN)CN(Cc1ccccc1C(F)(F)F)C(=O)Nc1c(F)cccc1F [CBK026822C] | 109% |
| Cc1ccc(OCC(=O)Nc2ccc3c(c2)nc2n3CCOC2)cc1 [CBK288005] | 102% |
| c1ccc2cc(-c3cn4ccnc4c(NC4CCOCC4)n3)ccc2c1 [CBK066290] | 96.1% |
| COc1cc2c(cc1NC(=O)C/C(C)=N/NC(=O)c1ccccc1F)oc1ccccc12 [CBK262437] | 106% |
| Cc1cnc2[nH]c(C3CCCN(C(=O)c4cnn(C)c4C)C3)cc2c1 (stereo not drawn) [CBK285171] | 101% |
| CCOC(=O)CC1C(=O)NCCN1C/C=C/c1ccccc1 (stereo not drawn) [CBK269922] | 90.7% |
| Cc1ccc(-n2c3nc(=O)[nH]c(=O)c-3cc3c(Cl)cccc32)c(C)c1 [CBK287965] | 83.3% |
| Cc1cc2c(=O)n(CC(=O)NCc3ccco3)cnc2s1 [CBK071898] | 91.2% |
| CC(C)C(=O)Nc1ccc2ccc(-c3ccc(C(C)(C)C)cc3)nc2n1 [CBK073669] | 106% |
| N#Cc1ccc(CN2CCCN(C(=O)c3cccc(F)c3)CC2)cc1 [CBK304010] | 96.2% |
| COC(=O)c1ccc(CNc2nc(OC)cc(OC)n2)cc1 [CBK093391] | 95% |
| CC(C)(C)c1ccc(-c2ccc3ccc(N)nc3n2)cc1 [CBK061872] | 79.3% |
| CCN(CC(=O)NCc1ccc(F)cc1)S(=O)(=O)c1c(C)n[nH]c1C [CBK306074] | 93.3% |
| Cc1ccccc1-n1nc(-c2ccc(NC(=O)c3ccccc3)cc2)cc1NC(=O)c1ccccc1 [CBK261264] | 82.2% |
| O=C(O)C1C(C(=O)O)C1C(=O)O (stereo not drawn) [CBK230432] | 94.9% |

| SMILES | viability at 28.5 h, 10 µM |
| --- | --- |
| Cc1nn(C)c(C(=O)Nc2sc3c(c2C#N)CCC(C)C3)c1Br (stereo not drawn) [CBK304212] | 104% |
| Cc1ccccc1C(=O)N1CCN(S(=O)(=O)c2sc(C(=O)O)c(C)c2C(=O)O)CC1 [CBK297146] | 102% |
| COc1ccc2c(c1)C(C(C(=O)O)C(=O)O)c1ccccc1O2 (stereo not drawn) [CBK266435] | 93.8% |
| Cc1ccc(Oc2c([N+](=O)[O-])ncn2C)c(Br)c1 [CBK002819] | 99.2% |
| CCOC(=O)CSc1nc(-c2ccc3c(c2)OCO3)ccc1C#N [CBK270262] | 87.6% |
| N#CCCN(C(=O)Nc1ccc2[nH]ccc2c1)C1CCCCC1 [CBK156362] | 97.9% |
| NC(CC(=O)O)c1ccc(OCc2ccccc2)cc1 (stereo not drawn) [CBK286999] | 80.9% |
| O=C(O)CCSc1nc2ccccc2n1CCOc1ccccc1 [CBK262555] | 95.9% |
| O=C(c1c(F)cccc1F)N1CCCC2(CCN(Cc3ccccc3)C2)C1 (stereo not drawn) [CBK136886] | 108% |
| CCOc1ccc(-c2c3c(c(-c4ccccc4)n2-c2ccc(N)cc2)C(=O)c2ccccc2C3=O)cc1 [CBK262685] | 40% |
| NC(=O)c1ccc2[nH]c(-c3cscn3)nc2c1 [CBK017800] | 86% |
| CCCCSc1nc(N)cc(N2CCC3(CCNC(=O)CC3)CC2)n1 [CBK307001] | 98.2% |
| CN(C)c1ccc(-c2nnc([C@H]3CCN(C(=O)CCC(=O)O)C3)o2)cc1 [CBK289408] | 119% |
| O=C(COc1ccc(-c2ccccc2)cc1)N1CCN(S(=O)(=O)c2ccccc2[N+](=O)[O-])CC1 [CBK264154] | 93% |
| CCN(C)C(=O)c1cn2cc(-c3cc(C)oc3C)n(C)c(=O)c2n1 [CBK307494] | 94.9% |
| CC1CN(CCCCNCc2cn(C)nc2-c2cccnc2)CC(C)O1 (stereo not drawn) [CBK304453] | 92.6% |
| O=c1[nH]c2ncc(-c3cccc(Br)c3)nc2n1CCc1cccnc1 [CBK064457] | 103% |
| CC(NC(=O)C1CCN(CCN2C(=O)c3ccccc3C2=O)CC1)c1ccc(F)cc1 (stereo not drawn) [CBK148750] | 107% |
| O=C1Nc2ccccc2SC1(O)C(F)(F)F (stereo not drawn) [CBK025554] | 114% |
| Cc1nn(CC(=O)N2CCCC2)c(=O)c2cc3occc3n12 [CBK283621] | 84.5% |
| Cc1nc(-c2ccc(NC(=O)C3CC=CCC3C(=O)O)cc2)cs1 (stereo not drawn) [CBK299815] | 99.4% |
| O=C(N/N=C\c1c(F)cccc1Cl)c1ccncc1 [CBK023263] | 84.7% |
| Cc1ccc(S(=O)(=O)Nc2ccccn2)c(C)c1C [CBK264995] | 90% |

| SMILES | viability at 28.5 h, 10 µM |
| --- | --- |
| COc1ccc(C(=O)NC(NCc2ccco2)C(Cl)(Cl)Cl)cc1 (stereo not drawn) [CBK262279] | 119% |
| Cc1ccc(Oc2cc(-n3nc(C)c(C(N)=O)c3N)ncn2)cc1 [CBK099753] | 95.7% |
| CC(C)CC(NS(=O)(=O)c1cccc2nsnc12)C(=O)O (stereo not drawn) [CBK217288] | 94.2% |
| Cc1cc(CC(=O)N/N=C/c2ccccc2)[nH]n1 [CBK007500] | 99.8% |
| CCc1nc2ccccc2n1CC(=O)O [CBK111477] | 101% |
| O=C(CCOc1ccccc1)Nc1cncc(OC2CCNCC2)n1 [CBK026734T] | 95.2% |
| Cc1ccc(SCCNS(C)(=O)=O)cc1 [CBK026280] | 90.8% |
| COc1ccnc(NC(c2cnn(C)c2)[C@H]2C[C@@H](O)C2)n1 (stereo partly drawn) [CBK306617] | 97.8% |
| Cc1nn(C)cc1S(=O)(=O)N1CCC(c2cccc(Cc3ccccc3Cl)n2)CC1 [CBK286115] | 95.3% |
| C[C@H]1CN2C[C@H](O)CC2CN1Cc1cccn1Cc1ccccc1F (stereo partly drawn) [CBK285165] | 88.7% |
| Cc1ccc(C2(O)CCN(CCNC(=O)C3CCCC3)CC2)cc1 [CBK282606] | 93.1% |
| Cc1cc(C)nc(SCC(=O)c2ccc(F)cc2)n1 [CBK092116] | 82.1% |
| CCOc1cc(/C=c2/sc3nc(=O)c(Cc4ccccc4)nn3c2=O)ccc1OC(C)=O [CBK077455] | 89.2% |
| O=[N+]([O-])c1ccc(S(=O)(=O)NCCSCc2ccco2)cc1 [CBK267503] | 94.1% |
| O=S(=O)(c1cc(Cl)sc1Cl)N1CCCCC1CO (stereo not drawn) [CBK051422] | 87.2% |
| Cc1cc(C(=O)N2CCC(N3C(=O)OCC3(C)C)CC2)n(C(C)(C)C)n1 [CBK044233] | 94.4% |
| O=C(Nc1cccnc1N1CCNCC1)c1ccoc1 [CBK029417T] | 95.4% |
| COc1ccccc1CNc1ccc(S(N)(=O)=O)cc1 [CBK288476] | 92.7% |
| COc1cc(Cc2c(OCCN(C)C)nc3ccccn3c2=O)cc(OC)c1OC [CBK005004C] | 99.9% |
| O=C(O)c1nccnc1C(=O)N1CCN(c2ccc(Cl)cc2)CC1 [CBK286826] | 89.4% |
| O=C(O)c1ccc(Oc2cccc([N+](=O)[O-])c2)cc1C(=O)O [CBK261179] | 110% |
| O=C(CC1CCCC1)N1CCC(c2cc(CCOc3cccc(C(F)(F)F)c3)[nH]n2)C1 (stereo not drawn) [CBK286267] | 89.4% |
| O=C(O)c1cccc(-c2cccc(N3CCN(c4ccccn4)CC3)n2)c1 [CBK036888] | 92.7% |

| SMILES | viability at 28.5 h, 10 µM |
| --- | --- |
| Cc1ncsc1CCOc1nccc(C(F)(F)F)n1 [CBK115798] | 80.3% |
| CCc1nn(CC(=O)NC2CC2)c(=O)c2cc3ccsc3n12 [CBK284128] | 88.6% |
| CCCc1[nH]nc(O)c1CCc1c(F)cccc1Cl [CBK081121] | 93.8% |
| Cc1ccc(C(N)=O)c(OCC(=O)N2c3ccccc3CCC2C)c1 (stereo not drawn) [CBK295633] | 93.8% |
| COc1ccc(CCCC(=O)Nc2cc3ccccc3c(N3CCNCC3)n2)cc1OC [CBK028417T] | 90.3% |
| Nc1n[nH]c(CCCc2nc(N)n[nH]2)n1 [CBK261016] | 89.8% |
| COc1ccc(-c2cnc3[nH]c(=O)n(Cc4ccccc4)c3n2)cc1 [CBK064210] | 103% |
| Cc1nc[nH]c1CN(Cc1ccccc1)C1CC(C)(C)NC(C)(C)C1 [CBK283178] | 92% |
| C=CCn1c(SCC(=O)Nc2cc(Cl)ccc2C)nnc1-c1ccccc1O [CBK266867] | 94.5% |
| Cc1ccc(OCCCCNCCN)c(Br)c1 [CBK265099G] | 85.1% |
| Cc1cccn2c(=O)cc(CN3CCCC(N4CCNC4=O)C3)nc12 (stereo not drawn) [CBK304947] | 88.4% |
| Cc1cccc(OCC(=O)NCC(c2cccs2)N2CCOCC2)c1 (stereo not drawn) [CBK305426] | 90.1% |
| CC(C)CNc1nccnc1-c1ccc(Cl)cc1 [CBK088738] | 91.3% |
| Cc1cc(NC(=O)C(C)OC(=O)C(NC(=O)OC(C)(C)C)c2ccccc2)no1 (stereo not drawn) [CBK170398] | 100% |
| Cc1cc(COc2nccnc2N2CCN(CCCO)CC2)no1 [CBK084197] | 89.6% |
| COc1cc(CNc2cc(-c3ccc(NC(C)=O)cc3)ncn2)cc(OC)c1OC [CBK091185] | 93.6% |
| CN(C)C(c1ccc2c(c1)OCO2)c1nnnn1C1CCCCC1 (stereo not drawn) [CBK020620] | 103% |
| CCN1CCN(c2ccc(NC(=O)c3ccc([N+](=O)[O-])c(C)c3)cc2)CC1 [CBK266503] | 115% |
| Cc1ccccc1OCC(=O)NCc1ccc(C(=O)O)cc1 [CBK287155] | 104% |
| Cc1ccc(C(=O)O)cc1S(=O)(=O)N1CCC(C(=O)O)CC1 [CBK267327] | 107% |
| O=C(O)c1cccc(-n2ncc(-c3ccccc3C(F)(F)F)n2)c1 [CBK112721] | 98.1% |

From article PMC12040169 (PLOS Biology, 2025)
